Reference: article PMC3038857, “Using Nuclear Receptor Activity to Stratify Hepatocarcinogens” (PLoS ONE, 2011)
Read-outs that look alike come from different tables or passages of the source.

Columns and labels:
[1] = target: T1, ESRRA (estrogen-related receptor alpha) (Homo sapiens, UniProt P11474); assay: ATG_ERRa_TRANS: Factorial reporter gene assay (HepG2); assay type: cell-based; conditions: scale not given, looks like -log10 of molar active concentration, 0 = no activity
T1 construct: expressed in transfected cells; host or cells: HepG2
T1 sequence (P11474 1-423): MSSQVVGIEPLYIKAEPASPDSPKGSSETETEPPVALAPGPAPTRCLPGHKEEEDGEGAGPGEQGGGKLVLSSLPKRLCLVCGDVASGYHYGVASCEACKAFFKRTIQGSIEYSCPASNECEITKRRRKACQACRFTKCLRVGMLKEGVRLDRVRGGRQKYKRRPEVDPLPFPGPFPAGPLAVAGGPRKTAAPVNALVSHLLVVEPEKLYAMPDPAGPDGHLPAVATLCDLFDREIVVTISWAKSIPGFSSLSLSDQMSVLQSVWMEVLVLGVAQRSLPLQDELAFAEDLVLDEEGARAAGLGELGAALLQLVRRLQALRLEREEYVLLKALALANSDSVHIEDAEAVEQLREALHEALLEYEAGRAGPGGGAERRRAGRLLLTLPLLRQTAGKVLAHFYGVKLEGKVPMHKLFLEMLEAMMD
Method: (§1) A multiple reporter transcription unit (MRTU) library consisting of 48 transcription factor binding sites was transfected into the HepG2 human liver hepatoma cell line. In addition to the cis-acting reporter genes (CIS), a modification of the approach was used to generate a trans-system (TRANS) with a mammalian one-hybrid assay consisting of an additional 25 MRTU library reporting the activity of nuclear receptor super-family members. […] These assays were performed by Attagene Inc. (Morrisville NC) under contract to EPA.
(§2) In addition to the cis-acting reporter genes (CIS), a modification of the approach was used to generate a trans-system (TRANS) with a mammalian one-hybrid assay consisting of an additional 25 MRTU library reporting the activity of nuclear receptor super-family members. […] Chemicals were then tested in the CIS and TRANS assays at seven concentrations starting at the MTC and followed by three-fold serial dilutions. These assays were performed by Attagene Inc. (Morrisville NC) under contract to EPA. Detailed description of the methods, data and analysis methods for this dataset will be presented in a separate publication.

[2] = target: T2, ESRRG (estrogen-related receptor gamma) (Homo sapiens, UniProt P62508); assay: ATG_ERRg_TRANS: Factorial reporter gene assay (HepG2); assay type: cell-based; design: scale not given here
T2 construct: expressed in transfected cells; host or cells: HepG2
T2 sequence (P62508 1-458): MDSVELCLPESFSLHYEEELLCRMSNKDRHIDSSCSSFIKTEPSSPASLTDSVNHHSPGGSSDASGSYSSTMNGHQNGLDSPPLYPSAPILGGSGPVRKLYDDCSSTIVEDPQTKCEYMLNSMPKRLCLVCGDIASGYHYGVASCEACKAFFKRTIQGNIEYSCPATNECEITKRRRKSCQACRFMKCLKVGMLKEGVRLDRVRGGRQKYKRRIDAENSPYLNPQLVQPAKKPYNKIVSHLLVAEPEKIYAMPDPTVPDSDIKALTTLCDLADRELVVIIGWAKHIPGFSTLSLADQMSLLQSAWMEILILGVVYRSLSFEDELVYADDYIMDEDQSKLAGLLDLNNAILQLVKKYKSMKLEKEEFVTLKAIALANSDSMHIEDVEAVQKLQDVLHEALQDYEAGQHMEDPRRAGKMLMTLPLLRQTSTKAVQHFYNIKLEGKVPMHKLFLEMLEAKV
Method: as §1, §2

[3] = target: T3, FXR (NR1H4) (Homo sapiens, UniProt Q96RI1); assay: NVS_NR_hFXR: Human FXR CDCA (cell-free HTS); assay type: binding; conditions: scale not given, looks like -log10 of molar active concentration, 0 = no activity
T3 sequence (Q96RI1 1-486): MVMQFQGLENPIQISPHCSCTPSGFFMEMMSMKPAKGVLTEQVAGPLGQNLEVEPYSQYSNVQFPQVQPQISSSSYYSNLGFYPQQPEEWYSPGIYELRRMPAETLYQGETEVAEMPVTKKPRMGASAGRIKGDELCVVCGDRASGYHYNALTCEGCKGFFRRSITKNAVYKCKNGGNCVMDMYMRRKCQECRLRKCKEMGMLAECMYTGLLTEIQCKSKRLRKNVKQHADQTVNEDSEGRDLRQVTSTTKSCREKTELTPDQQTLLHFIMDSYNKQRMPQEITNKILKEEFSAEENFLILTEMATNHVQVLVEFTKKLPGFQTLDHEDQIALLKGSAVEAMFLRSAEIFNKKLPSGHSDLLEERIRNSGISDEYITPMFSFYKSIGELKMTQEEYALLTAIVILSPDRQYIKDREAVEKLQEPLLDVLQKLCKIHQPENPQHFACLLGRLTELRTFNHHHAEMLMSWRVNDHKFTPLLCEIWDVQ
Excerpt: These are a collection of biochemical assays measuring binding constants and enzyme inhibition values. Chemicals were initially screened at a single concentration in duplicate wells at a concentration of 10 [drawing 63] M for cytochrome P-450 assays and 25 [drawing 64] M for all others. […] These assays were run by Caliper Life Sciences (Hanover, MD) under contract to EPA. Short assay descriptions are available at: http://www.caliperls.com/products/contract-research/in-vitro/.
Cell-free HTS Assays: A collection of biochemical assays measuring binding constants and enzyme inhibition values. […] These assays were run by Caliper Life Sciences (Hanover, MD) under contract to EPA. Short assay descriptions are available at http://www.caliperls.com/products/contract-research/in-vitro/. Values for all endpoints were imported into GeneData Screener (Basel, Switzerland) and normalised to solvent controls from the same plate as the tested compounds and expressed as percent of neutral control. Concentration-response curves were fit in GeneData Screener (Basel, Switzerland) Condeseo module using the Hill equation and AC50 values were determined. […] Detailed description of the methods, data and analysis methods for this dataset are described in a separate publication.

[4] = target: T4, CAR (NR1I3) (Homo sapiens, UniProt Q14994); assay: ATG_CAR_TRANS: Factorial reporter gene assay (HepG2); assay type: cell-based; design: endogenous in cells; host or cells: HepG2
T4 sequence (Q14994 1-352): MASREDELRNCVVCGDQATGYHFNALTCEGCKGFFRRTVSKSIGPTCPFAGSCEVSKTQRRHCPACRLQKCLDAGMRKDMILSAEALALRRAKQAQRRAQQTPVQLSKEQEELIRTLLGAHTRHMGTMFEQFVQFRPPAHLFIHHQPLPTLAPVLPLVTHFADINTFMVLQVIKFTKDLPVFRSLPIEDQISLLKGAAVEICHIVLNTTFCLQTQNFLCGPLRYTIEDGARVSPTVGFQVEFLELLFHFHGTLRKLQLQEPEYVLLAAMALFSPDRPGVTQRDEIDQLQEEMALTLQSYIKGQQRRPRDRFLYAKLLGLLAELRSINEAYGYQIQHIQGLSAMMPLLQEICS
Method: as §1, §2

[5] = target: T4, CAR (NR1I3); assay: ATG_PBREM_CIS: Factorial reporter gene assay (HepG2); assay type: cell-based; design: endogenous in cells; host or cells: HepG2; scale not given here
In short: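 HepG2 cells transfected with multiplexed reporter libraries: cis-acting binding-site reporters (CIS) and a one-hybrid nuclear-receptor trans system (TRANS). Chemicals tested at seven concentrations, starting at the maximum tolerated concentration with three-fold serial dilutions.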

[6] = test system: Rat Liver; conditions: ref ToxRefDB, cited from earlier work
[7] = HepG2, scale not given, looks like -log10 of molar active concentration, 0 = no activity
[8] = rat chronic study, liver, preneoplastic lesion, coded 6 / 0, code not explained here

| SMILES | ATG_ERRa_TRANS [1] | ATG_ERRg_TRANS [2, 7] | ATG_CAR_TRANS [4, 7] | ATG_PBREM_CIS [5, 7] | CHR_Rat_Liver_2_PreneoplasticLesion [6, 8] | further results |
| --- | --- | --- | --- | --- | --- | --- |
| COC(=O)c1ccccc1CS(=O)(=O)NC(=O)Nc1nc(OC)cc(OC)n1 [r33] | 0 | 0 | 0 | 0 |  | NVS_NR_hFXR [3]: 0 |
| CC(C)N1C(=O)c2ccccc2NS1(=O)=O [r37] | 0 | 0 |  |  | 0 |  |
| COc1ccc(-c2ccccc2)cc1NNC(=O)OC(C)C [r38] | 0 | 4.469 | 0 | 0 | 0 | NVS_NR_hFXR [3]: 0 |
| Cc1c(COC(=O)C2C(/C=C(\Cl)C(F)(F)F)C2(C)C)cccc1-c1ccccc1 (stereo not shown) [r39] |  |  | 0 | 0 | 0 | NVS_NR_hFXR [3]: 0 |
| CC(C)(c1ccc(O)cc1)c1ccc(O)cc1 [r40] | 0 | 0 | 0 | 0 | 0 |  |
| O=C(Nc1ccccc1-c1ccc(Cl)cc1)c1cccnc1Cl [r42] | 0 | 0 | 0 | 0 | 6 |  |
| CC(C)N1C(=O)N(c2ccccc2)CS/C1=N\C(C)(C)C [r45] | 0 | 0 | 0 | 0 | 6 |  |
| C=CCOC(=O)C(C)(C)OC(=O)c1cc(-n2c(=O)cc(C(F)(F)F)n(C)c2=O)ccc1Cl [r47] | 0 | 0 | 0 | 0 | 0 |  |
| CCC(C)Nc1c([N+](=O)[O-])cc(C(C)(C)C)cc1[N+](=O)[O-] (stereo not shown) [r48] | 0 | 0 |  |  |  |  |
| CCSC(=O)N(CC(C)C)CC(C)C [r49] | 0 | 0 | 0 | 0 | 0 |  |
| O=C1C2CC=CCC2C(=O)N1SC(Cl)(Cl)Cl (stereo not shown) [r51] | 0 | 0 | 0 | 0 |  |  |
| CNC(=O)Oc1cccc2ccccc12 [r52] |  |  | 0 | 0 | 6 | NVS_NR_hFXR [3]: 0 |
| CC1=C(C(=O)Nc2ccccc2)SCCO1 [r53] | 0 | 0 |  |  | 0 | NVS_NR_hFXR [3]: 0 |
| CCOC(=O)C(Cl)Cc1cc(-n2nc(C)n(C(F)F)c2=O)c(F)cc1Cl (stereo not shown) [r54] |  |  | 0 | 0 | 0 | NVS_NR_hFXR [3]: 0 |
| Nc1cnn(-c2ccccc2)c(=O)c1Cl [r56] |  |  | 0 | 0 | 0 |  |
| COc1cc(Cl)c(OC)cc1Cl [r57] | 0 | 0 |  |  |  |  |
| N#Cc1c(Cl)c(Cl)c(Cl)c(C#N)c1Cl [r58] |  |  | 0 | 0 |  | NVS_NR_hFXR [3]: 0 |
| CC(C)OC(=O)Nc1cccc(Cl)c1 [r59] | 0 | 0 |  |  | 6 | NVS_NR_hFXR [3]: 0 |
| COc1nc(C)nc(NC(=O)NS(=O)(=O)c2ccccc2Cl)n1 [r62] | 0 | 0 | 0 | 0 | 0 |  |
| COc1nc(C)nc(NC(=O)NS(=O)(=O)c2ccccc2Cl)n1 [r63] | 0 | 0 | 0 | 0 | 0 |  |
| Cc1ccccc1CO[C@@H]1C[C@@]2(C(C)C)CC[C@]1(C)O2 [r64] |  |  | 0 | 0 | 0 |  |
| C#CCC1=C(C)[C@H](OC(=O)[C@H]2[C@H](C=C(C)C)C2(C)C)CC1=O [r249] |  |  |  |  |  | CHR_Rat_Liver_2_PreneoplasticLesion ([6]; rat, chronic study): 0; ATG_PBREM_CIS ([5]; HepG2): 5.276 |
| CCCN(CCC)c1c([N+](=O)[O-])cc(C(F)(F)F)c(N)c1[N+](=O)[O-] [r252] |  |  |  |  |  | CHR_Rat_Liver_2_PreneoplasticLesion ([6]; rat, chronic study): 0; ATG_PBREM_CIS ([5]; HepG2): 4.337 |
| CSc1nc(NC(C)C)nc(NC(C)C)n1 [r256] |  |  |  |  |  | CHR_Rat_Liver_2_PreneoplasticLesion ([6]; rat, chronic study): 0 |
| CCCC1COC(Cn2cncn2)(c2ccc(Cl)cc2Cl)O1 (stereo not shown) [r262] |  |  |  |  |  | CHR_Rat_Liver_2_PreneoplasticLesion ([6]; rat, chronic study): 0 |
| CC(C)=CC1C(C(=O)OCc2coc(Cc3ccccc3)c2)C1(C)C (stereo not shown) [r280] |  |  |  |  |  | CHR_Rat_Liver_2_PreneoplasticLesion ([6]; chronic study, rat liver): 6; ATG_CAR_TRANS ([4]; HepG2 reporter): 4.585 |
| CCc1ccc(C(=O)NN(C(=O)c2cc(C)cc(C)c2)C(C)(C)C)cc1 [r290] |  |  |  |  |  | CHR_Rat_Liver_2_PreneoplasticLesion ([6]; chronic study, rat liver): 0 |
| CCc1nn(C)c(C(=O)NCc2ccc(C(C)(C)C)cc2)c1Cl [r291] |  |  |  |  |  | ATG_ERRg_TRANS ([2]; HepG2 reporter): 5.301; CHR_Rat_Liver_2_PreneoplasticLesion ([6]; chronic study, rat liver): 6; ATG_PBREM_CIS ([5]; HepG2 reporter): 5.745 |
| COc1cccc(C(=O)NN(C(=O)c2cc(C)cc(C)c2)C(C)(C)C)c1C [row 202] |  |  |  |  |  | CHR_Rat_Liver_2_PreneoplasticLesion ([6]; chronic rat study, liver): 0 |
| CC(C)Oc1cc(-n2nc(C(C)(C)C)oc2=O)c(Cl)cc1Cl [row 225] |  |  |  |  |  | CHR_Rat_Liver_2_PreneoplasticLesion ([6]; chronic rat study, liver): 6 |
